Results from patent US20260242416A1, “ANTIMICROBIAL PEPTIDES” (priority 2023, published 2026).
Converted amounts (≈) assume the structure as drawn. “Also recorded” adds a separate entry of the source. Where a SMILES comes first, the peptide text is derived from it.

How the values were obtained:
[1] = tested on: Escherichia coli ATCC 25922; assay: Antimicrobial susceptibility testing (MIC/MBC), Example 1; format: cell-based; conditions: Table 3; footnote: wild-type Escherichia coli ATCC 29522; minimum of three independent experiments
Procedure: Twenty-one putative AMP sequences identified using the rAMPage pipeline were validated through a minimum of three AST experiments performed independently on separate days. In these tests, the AMP activity was assessed using two metrics: minimum inhibitory concentration and minimum bactericidal concentration (MIC and MBC, respectively). MIC and MBC values were determined using procedures outlined by the Clinical and Laboratory Standards Institute (CLSI), with the recommended adaptations for the testing of cationic AMPs described previously. “Wild-type” strains of Escherichia coli (E. coli 25922) and Staphylococcus aureus (S. aureus 29213) were purchased from the American Type Culture Collection (ATCC; Manassas, VA, USA) and were used for screening of antimicrobial activity. Briefly, putative AMPs were synthesized by Genscript (Piscataway, NJ, USA) and received in lyophilized format. These peptides were suspended using ultrapure water (Life Technologies, Grand Island, NY, USA; Invitrogen cat #10977-015), and an 11 μL two-fold serial dilution of 1280 to 2.5 μg/mL was prepared in duplicate rows in a 96-well microtiter plate, before being combined with 100 μL standardized bacterial inoculum yielding a final duplicate testing range of 128 to 0.25 μg/mL. The bacterial inoculum was prepared using colonies isolated on non-selective agar and combined with Mueller Hinton Broth. This suspension was measured and adjusted to achieve an optical density of 0.08-0.1, equivalent to a 0.5 McFarland standard (1-2×10^8 cfu/mL). The inoculum was then diluted to a target concentration of 5±3×10^5 cfu/mL; total viable counts from the final inoculum were routinely performed to confirm the target bacterial density was achieved. […] The MIC and adjacent wells were plated onto non-selective agar; the concentration in which killed 99.9% of the inoculum following additional overnight incubation was determined to be the MBC.

[2] = tested on: E. coli ATCC 25922, Salmonella Enteritidis, S. aureus ATCC 29213; assay: Broth microdilution, panel result (at least one / all strains), Example 2; format: cell-based; parameters: key to inhibitory activity (asterisk): *Indicates inhibitory activity; conditions: Table 14; against at least one of E. coli ATCC 25922, Salmonella Enteritidis, S. aureus ATCC 29213
In short: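 CLSI broth microdilution adapted for cationic peptides, in MHB with a final inoculum of 2-8×10^5 cfu/mL in polypropylene plates. Peptides were serially diluted from 128 down to 0.5 μg/mL and incubated 20-24 h at 37° C. MIC is the lowest concentration with no visible growth.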

S. aureus ATCC 29213 = format: cell-based, Staphylococcus aureus; conditions: Table 14, third value of the cell; three independent experiments; highest concentration tested 128
In short: (§1)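 CLSI broth microdilution adapted for cationic peptides, in Mueller-Hinton broth, inoculum 2-8×10^5 cfu/mL. Peptides serially diluted from 128 to 0.5 μg/mL in polypropylene plates, incubated 20-24 h at 37° C. MIC = lowest concentration without visible growth.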

E. coli ATCC 25922 = format: cell-based, Escherichia coli; conditions: for MIC (ug/mL) E. coli: Table 14, first value of the cell, three independent experiments, highest concentration tested 128
In short: as §1

HEK293 cells = assay: alamarBlue cell viability assay (cytotoxicity); format: cell-based, human; conditions: concentrations up to 128 μg/mL
Procedure: (§2) The human embryonic kidney cell line HEK293 and the corresponding growth media and supplements were purchased from the ATCC. The cells were maintained in Eagle's Minimum Essential Medium (EMEM) supplemented with 10% fetal bovine serum (FBS) and 1% Penicillin-Streptomycin solution and grown in a 5% CO2 incubator at 37° C. […] Cells were incubated overnight to allow them to adhere. […] TX-100 was diluted to 2% in UltraPure deionized water and added as a positive control. Complete growth medium was added to the peptides and TX-100 containing wells. Spent growth medium of wells with adhered cells was replaced with the contents of wells containing serially diluted peptides or TX-100. Cells were incubated for four hours at 37° C. in 5% CO2 incubator. Growth medium containing peptides or TX-100 was replaced with fresh growth medium containing 10% (v/v) alamarBlue (Bio-Rad Laboratories, Hercules, CA, USA) and incubated for 20 h. Fluorescence was measured at excitation of 540 nm and emission of 590 nm in a Cytation 5 plate reader (Agilent BioTek, Winooski, VT, USA) and results recorded and analyzed with Gen5 software (Agilent BioTek, Winooski, VT, USA). The average fluorescence reads of TX-100 and growth media only wells were used to calculate 0% and 100% cell viability, respectively. The percentage of viable cells at each peptide concentration was determined by Formula 1: […]

[3] = alamarBlue cell viability assay (cytotoxicity); format: cell-based, human; conditions: human, HEK293 cells, at 128 μg/mL
Procedure: as §2

[4] = tested on: Staphylococcus aureus ATCC 29213; format: cell-based; conditions: Table 3; wild-type Staphylococcus aureus ATCC 29213; minimum of three independent experiments
Procedure: Twenty-one putative AMP sequences identified using the rAMPage pipeline were validated through a minimum of three AST experiments performed independently on separate days. In these tests, the AMP activity was assessed using two metrics: minimum inhibitory concentration and minimum bactericidal concentration (MIC and MBC, respectively). MIC and MBC values were determined using procedures outlined by the Clinical and Laboratory Standards Institute (CLSI), with the recommended adaptations for the testing of cationic AMPs described previously. “Wild-type” strains of Escherichia coli (E. coli 25922) and Staphylococcus aureus (S. aureus 29213) were purchased from the American Type Culture Collection (ATCC; Manassas, VA, USA) and were used for screening of antimicrobial activity. Briefly, putative AMPs were synthesized by Genscript (Piscataway, NJ, USA) and received in lyophilized format. […] This suspension was measured and adjusted to achieve an optical density of 0.08-0.1, equivalent to a 0.5 McFarland standard (1-2×10^8 cfu/mL). […]

porcine red blood cells = assay: Hemolysis assay (HC50), Example 2; conditions: up to 128 μg/mL
Procedure: Peptides were evaluated for toxicity using three independent hemolysis experiments. Whole blood from healthy donor pigs, supplemented with Na Citrate, was purchased from Lampire Biological Laboratories (Pipersville, PA, USA). Red blood cells (RBCs) were washed and isolated by three centrifugation cycles using Roswell Park Memorial Institute medium (RPMI; Thermo-Fisher Scientific) to create a 1% (v/v) RBC solution. […] Following a minimum 30 min incubation at 37° C., plates were centrifuged and % volume from each supernatant was transferred to a new 96-well plate. The absorbance of these wells was measured at 415 nm. To quantify hemolytic activity and determine the AMP concentration that lyses 50% of the RBCs (HC50), absorbance reading from wells containing RBCs treated with 11 μL of a 2% TritonX-100 detergent solution (TX-100) or RPMI (AMP solvent-only) were used to define 100% and 0% hemolysis, respectively. All centrifugation steps were performed at 500× g for five minutes in an Allegra-6R centrifuge (Beckman Coulter, Brea, CA, USA).

[5] = tested on: Salmonella enterica serovar Enteritidis (human clinical isolate); format: cell-based; conditions: for MIC (ug/mL) S. Enteritidis: Table 14, second value of the cell, three independent experiments, highest concentration tested 128
In short: as §1

CC[C@H](C)[C@H](NC(=O)[C@H](CCCCN)NC(=O)[C@H](CC(=O)O)NC(=O)[C@H](CC(C)C)NC(=O)[C@@H](NC(=O)CNC(=O)[C@@H](NC(=O)[C@H](CO)NC(=O)[C@H](Cc1ccccc1)NC(=O)[C@H](CC(N)=O)NC(=O)[C@H](CCCCN)NC(=O)[C@@H](NC(=O)CNC(=O)[C@H](CCC(=O)O)NC(=O)[C@H](CCCCN)NC(=O)[C@@H](NC(=O)[C@@H](NC(=O)[C@@H](NC(=O)[C@H](Cc1c[nH]c2ccccc12)NC(=O)[C@H](CC(C)C)NC(=O)CN)[C@@H](C)O)[C@@H](C)O)[C@@H](C)CC)C(C)C)C(C)C)C(C)C)C(=O)N[C@@H](CCCNC(=N)N)C(=O)N[C@@H](CS)C(=O)N[C@@H](CCCCN)C(=O)N[C@H](C(=O)N[C@H](C(=O)NCC(=O)NCC(=O)N[C@@H](CS)C(=O)O)[C@@H](C)O)[C@@H](C)CC [PeNi14] (H-GLWTTIKEGVKNFSVGVLDKIRCKITGGC-OH; N-terminus and C-terminus assumed)
MIC* (μg/mL) E. coli [1]: 4 to 8 µg⁻¹ mL⁻¹ | inhibitory activity (asterisk) [2]: 15.* GLWTTIKEGVKNFSVGVLDKIRCKITGGC

CC[C@H](C)[C@H](NC(=O)[C@@H](N)CCCCN)C(=O)N[C@@H](CCCCN)C(=O)N[C@H](C(=O)N1CCC[C@H]1C(=O)N[C@@H](Cc1c[nH]c2ccccc12)C(=O)NCC(=O)N[C@@H](CCCCN)C(=O)N[C@H](C(=O)N[C@@H](CCCCN)C(=O)N[C@@H](CC(=O)O)C(=O)N[C@@H](Cc1ccccc1)C(=O)N[C@@H](CC(C)C)C(=O)N[C@H](C(=O)NCC(=O)NCC(=O)N[C@@H](CCSC)C(=O)N[C@@H](CCCCN)C(=O)N[C@@H](C)C(=O)N[C@H](C(=O)NCC(=O)N[C@@H](CCCCN)C(=O)N[C@@H](CCCCN)C(=O)O)C(C)C)C(C)C)C(C)C)[C@@H](C)CC [TeBi1] (H-KIKIPWGKVKDFLVGGMKAVGKK-OH)
MIC (ug/mL) S. aureus (S. aureus ATCC 29213): 4 to 8 µg/mL | MIC against E. coli (E. coli ATCC 25922): 1 to 2 µg/mL | MIC (ug/mL) E. coli (E. coli ATCC 25922): 1 to 2 µg/mL | cytotoxicity (HEK293 cells): low or no cytotoxicity at lower concentrations; also recorded: high levels of cytotoxicity at concentrations higher than their MICs | viability at 4 h, 128 µg/mL [3]: 40% | MIC* (μg/mL) S. aureus [4]: 2 to 8 µg/mL | hemolytic activity (porcine red blood cells): not hemolytic at the concentrations tested | MIC (ug/mL) S. Enteritidis [5]: 4 to 8 µg/mL

CC(C)C[C@H](NC(=O)[C@H](CCCCN)NC(=O)[C@H](CCC(=O)O)NC(=O)[C@H](CC(C)C)NC(=O)[C@H](CCCNC(=N)N)NC(=O)[C@@H](NC(=O)[C@H](Cc1ccc(O)cc1)NC(=O)[C@H](CC(N)=O)NC(=O)[C@H](CCCCN)NC(=O)[C@H](CCCCN)NC(=O)[C@H](CC(N)=O)NC(=O)[C@@H](NC(=O)[C@H](CC(C)C)NC(=O)[C@H](CCCCN)NC(=O)[C@H](CCCCN)NC(=O)[C@@H](NC(=O)[C@H](CO)NC(=O)[C@H](CCCCN)NC(=O)[C@H](CO)NC(=O)[C@H](CC(C)C)NC(=O)[C@H](Cc1c[nH]c2ccccc12)NC(=O)[C@@H](N)CO)C(C)C)C(C)C)[C@@H](C)O)C(=O)N[C@@H](C)C(=O)N[C@@H](CCCCN)C(=O)N[C@@H](CCCCN)C(=O)N[C@@H](CCCCN)C(=O)N[C@@H](CC(C)C)C(=O)N[C@@H](Cc1ccccc1)C(=O)N[C@@H](CC(N)=O)C(=O)N[C@@H](CCC(=O)O)C(=O)O [TeRu4] (H-SWLSKSVKKLVNKKNYTRLEKLAKKKLFNE-OH)
MIC (ug/mL) S. aureus (S. aureus ATCC 29213): > 128 µg/mL | MIC (ug/mL) E. coli (E. coli ATCC 25922): 1 µg/mL (≈ 0.276 µM) | cytotoxicity (HEK293 cells): not to be toxic to HEK293 cells at any of the concentrations tested; also recorded: not toxic against either porcine erythrocytes or HEK293 cells | MIC* (μg/mL) S. aureus [4]: >128 µg/mL | hemolytic activity (porcine red blood cells): not hemolytic at the concentrations tested; also recorded: not toxic against either porcine erythrocytes or HEK293 cells | MIC against Salmonella Enteritidis [5]: 2 to 4 µg/mL | MIC (ug/mL) S. Enteritidis [5]: 2 to 4 µg/mL
